# Results as given in patent publication US5594004A, “Compound with platelet aggregation inhibitor activity” (Meiji Seika Kabushiki Kaisha, priority 1993, dated 1997).
# Where a name gives a salt, the structure may show the parent alone.
# Biological target: T1, human platelet GPIIb/IIIa (Homo sapiens, UniProt P05106+P08514)
# T1 construct: platelets collected from healthy adults; from tissue; host or cells: platelets from healthy adults (solubilized with octylglucoside, purified on GRGDSPK-Sepharose)
# T1 sequence (P08514 32-887 limits assumed): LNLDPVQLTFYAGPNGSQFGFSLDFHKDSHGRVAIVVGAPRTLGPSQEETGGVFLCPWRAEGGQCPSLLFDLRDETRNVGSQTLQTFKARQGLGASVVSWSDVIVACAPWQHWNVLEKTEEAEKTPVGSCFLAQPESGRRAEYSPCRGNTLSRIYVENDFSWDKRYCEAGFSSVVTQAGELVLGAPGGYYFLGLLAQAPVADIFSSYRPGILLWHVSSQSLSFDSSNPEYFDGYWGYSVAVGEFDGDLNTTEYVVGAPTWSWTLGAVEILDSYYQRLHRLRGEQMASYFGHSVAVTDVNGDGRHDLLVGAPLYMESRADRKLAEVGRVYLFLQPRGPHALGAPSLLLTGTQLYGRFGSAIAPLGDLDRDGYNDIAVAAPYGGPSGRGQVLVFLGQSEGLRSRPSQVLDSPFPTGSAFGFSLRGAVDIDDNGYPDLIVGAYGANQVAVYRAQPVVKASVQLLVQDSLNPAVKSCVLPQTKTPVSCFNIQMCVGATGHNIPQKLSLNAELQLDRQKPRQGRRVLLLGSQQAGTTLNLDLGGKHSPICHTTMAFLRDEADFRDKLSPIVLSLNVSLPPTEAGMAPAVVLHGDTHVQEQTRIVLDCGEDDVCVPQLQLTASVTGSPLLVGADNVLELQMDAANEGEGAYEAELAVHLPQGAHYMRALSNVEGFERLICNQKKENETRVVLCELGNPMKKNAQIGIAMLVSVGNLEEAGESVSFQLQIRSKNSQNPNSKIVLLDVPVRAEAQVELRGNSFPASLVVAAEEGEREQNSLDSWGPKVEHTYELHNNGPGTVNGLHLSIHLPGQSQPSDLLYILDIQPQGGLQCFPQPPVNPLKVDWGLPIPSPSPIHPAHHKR
# T1 sequence (P08514 891-1039 limits assumed): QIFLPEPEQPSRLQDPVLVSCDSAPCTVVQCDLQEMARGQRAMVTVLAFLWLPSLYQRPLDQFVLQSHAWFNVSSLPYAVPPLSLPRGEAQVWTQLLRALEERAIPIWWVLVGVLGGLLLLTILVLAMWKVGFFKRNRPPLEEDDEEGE
# T1 sequence (P05106 27-788): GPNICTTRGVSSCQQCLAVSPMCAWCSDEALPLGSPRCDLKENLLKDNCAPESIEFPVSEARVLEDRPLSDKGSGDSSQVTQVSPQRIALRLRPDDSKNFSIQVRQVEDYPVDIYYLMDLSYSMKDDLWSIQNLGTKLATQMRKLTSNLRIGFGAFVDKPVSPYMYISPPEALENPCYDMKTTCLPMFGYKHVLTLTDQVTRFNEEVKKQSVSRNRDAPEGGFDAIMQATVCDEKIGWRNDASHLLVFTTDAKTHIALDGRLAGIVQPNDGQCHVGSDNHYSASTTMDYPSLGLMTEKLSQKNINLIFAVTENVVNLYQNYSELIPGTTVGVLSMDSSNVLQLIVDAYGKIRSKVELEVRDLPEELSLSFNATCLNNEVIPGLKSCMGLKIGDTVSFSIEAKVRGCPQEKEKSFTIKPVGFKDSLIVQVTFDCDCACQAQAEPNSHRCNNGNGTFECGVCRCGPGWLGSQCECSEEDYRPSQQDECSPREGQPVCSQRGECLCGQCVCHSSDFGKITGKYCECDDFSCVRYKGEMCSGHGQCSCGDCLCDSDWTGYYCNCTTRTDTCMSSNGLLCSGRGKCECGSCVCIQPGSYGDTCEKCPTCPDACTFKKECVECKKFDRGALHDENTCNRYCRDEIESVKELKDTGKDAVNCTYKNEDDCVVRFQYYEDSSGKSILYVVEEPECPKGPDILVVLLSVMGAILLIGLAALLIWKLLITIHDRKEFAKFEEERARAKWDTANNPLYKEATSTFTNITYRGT
# Assay: Pharmacological test 2: inhibition of fibrinogen bonding to platelet GPIIb/IIIa (solid phase assay, biotinylated fibrinogen)
# Type: binding
# Settings: fibrinogen bonding to GPIIb/IIIa
# Procedure: Inhibiting effect of the compound according to the present invention on the binding of platelet GPIIb/IIIa and fibrinogen was examined with a solid phase human platelet GPIIb/IIIa bonding assay using biotinylated fibrinogen as a ligand. Human platelet GPIIb/IIIa was purified according to the method described by Pytela, R. et al. (Science, 231, 1559-1561 (1986)). […] The same amount of TBS containing 50 mM octylglucoside and 2 mM PMSF was added to the pellet obtained in order to solubilize the membrane protein at 4° C. for 20 minutes. […] The solubilized protein solution was adsorbed on a GRGDSPK-Sepharose column which had been equilibrated with TBS (Buffer A) containing 50 mM Octylglucoside, 1 mM CaCl2 and MgCl2. After the column was washed with Buffer A, the adsorbed GPIIb/IIIa was eluted with Buffer A containing 2 mM GRGDSP peptide. GRGDSPK-Sepharose was prepared by coupling GRGDSPK peptide and CNBr-activated Sepharose 4B (Pharmacia) according to the instruction of the manufacturer. Then, solid phase human platelet GPIIb/IIIa bonding assay was carried out according to the method of Mori et al. […] Purified human platelet GPIIb/IIIa was adjusted in an amount of 2 μg/ml and adsorbed in an amount of 50 μl on a 96 well-microtiter plate at 4° C. overnight. After washing with TBS containing 1 mM CaCl2 and 1 mM MgCl2, 100 μl of 1% bovine serum albumin was added, blocking was conducted at 4° C. overnight. […] After washing with TBS-Tween 20, 50 μl of peroxidase labelled avidin which had been diluted with TBS to 4,000 times was added. The reaction was continued for 20 minutes. […] A 50 μl portion of a 0.1M citrate buffer containing 0.05% NaN3 was added to stop the reaction, and absorbance at 415 nm was measured. The rate of Bonding inhibition was calculated from the following formula: [formula]
row,IC50,Structure (SMILES)
1,34 µM,"O=C(O)CCc1ccc(C(=O)CNC(=O)c2cc3c(s2)CCNC3)cc1 [Example 20, 3-[4-[[(4,5,6,7-tetrahydrothieno[3,2-c]pyridin-2-yl)carbonyl]aminoacetyl]phenyl]propionic acid trifluoroacetate]"

# Same assay, conditions: inhibition rate at 10^-5 M
row,Structure (SMILES),inhibition at 10 µM
1,"NC[C@H]1CC[C@H](C(=O)NCC(=O)c2ccc(OCC(=O)O)c(OCC(=O)O)c2)CC1 [Example 1, [[4-[[[trans-4-(aminomethyl)cyclohexyl]carbonylamino]acetyl]-o-phenylene]dioxy]diacetic acid trifluoroacetate]",51%

# System: human PRP (platelet rich plasma)
# Assay: Pharmacological test 1: inhibition of ADP-induced platelet aggregation in human PRP
# Type: cell-based
# Settings: Homo sapiens, Platelet, platelet aggregation, ADP 5 μM inducer
# Procedure: Pharmacological test 1 Inhibition of platelet aggregation
# The effect of the compound according to the present invention on inhibiting the platelet aggregation was examined with human PRP (platelet rich plasma).
# Nine volumes of a blood sample was taken out of the vein of a normal human with a syringe in which one volume of a 3.8% sodium citrate solution was charged. The blood sample was centrifuged at 170×g at room temperature for 10 minutes. The supernatant thus obtained was isolated as PRP. The residual blood sample that PRP had been taken out was centrifuged at 2,700×g for 15 minutes. The supernatant was then taken as platelet poor plasma (PPP).
# Platelet aggregation test was conducted with an aggligometer (PAM-8C; manufactured by MEBANICKS Co., Ltd.). Compounds to be tested were dissolved in a 50% DMSO saline, a 50% methanol saline or physiological saline. The compound and PRP were preincubated for 2 minutes. The ADP (CHRONO-PAR REAGENTS 384 ADP, CHRONO-LOG Corp.) was used as an inducer in the form of a dilution with saline so that the final concentration is 5 μM.
# Anti-platelet aggregation activity was obtained as an inhibition rate to platelet aggregation effect of ADP in the absence of a compound to be tested as follows: [formula] Physiological test 2 Inhibition of fibrinogen bonding to platelet GPIIb/IIIa
row,Structure (SMILES),IC50
1,"O=C(O)COc1ccc(C(=O)CNC(=O)c2cc3c(s2)CCNC3)c(OCC(=O)O)c1 [Example 25, [[4-[[[(4,5,6,7-tetrahydrothieno[3.2-c]pyridin-2-yl)carbonyl]amino]acetyl]-m-phenylene]dioxy]diacetic acid trifluoroacetate]",1500 nM
2,"COc1cc(C(=O)CNC(=O)c2cc3c(s2)CCNC3)ccc1OCC(=O)O [Example 26, 4-[[4,5,6,7-tetrahydrothieno[3.2-c]pyridin-2-yl)carbonyl]aminoacetyl]-2-methoxyphenoxyacetic acid trifluoroacetate]",1000 nM
3,"O=C(O)COc1ccc(C(=O)CNC(=O)c2sc3c(c2Cc2ccccc2)CNCC3)cc1OCC(=O)O [Example 28, [[4-[[[(3-benzyl-4,5,6,7-tetrahydrothieno[3.2-c]pyridin-2-yl)carbonyl]amino]acetyl]-o-phenylene]dioxy]diacetic acid trifluoroacetate]",> 10000 nM
4,"O=C(O)COc1ccc(C(=O)CNC(=O)c2cc3c(s2)CCCNC3)cc1OCC(=O)O [Example 30, [[4-[[[(5,6,7,8-tetrahydro-4H-thieno[3.2-c]azepin-2-yl)carbonyl]amino]acetyl]-o-phenylene]dioxy]diacetic acid trifluoroacetate]",1900 nM
5,"O=C(O)COc1ccc(C(=O)CNC(=O)c2cc3c(s2)CCNCC3)cc1OCC(=O)O [Example 31, [[4-[[[(5,6,7,8-tetrahydro-4H-thieno[2,3-d]azepin-2-yl)carbonyl]amino]acetyl]-o-phenylene]dioxy]diacetic acid trifluoroacetate]",150 nM
6,"O=C(O)COc1ccc(C(=O)NCC(=O)c2cc3c(s2)CCNC3)cc1OCC(=O)O [Example 32, [[4-[N-[(4,5,6,7-tetrahydrothieno[3,2-c]pyridin-2-yl)carbonyl]methyl]carbamoyl]-o-phenylene]dioxy]diacetic acid trifluoroacetate]",480 nM
7,"CCOC(=O)COc1ccc(CCNC(=O)c2cc3c(s2)CCNC3)cc1OCC(=O)OCC [Example 33, Diethyl [[4-[[2-[(4,5,6,7-tetrahydrothieno[3,2-c]pyridin-2-yl)carbonyl]amino]ethyl]-o-phenylene]dioxy]diacetate trifluoroacetate]",1700 nM
8,"CCOC(=O)COc1ccc(C(=O)CNC(=O)c2cc3c(s2)CCNC3)cc1OCC(=O)OCC [Example 34, Diethyl [[4-[[[(4,5,6,7-tetrahydrothieno[3,2-c]pyridin2-yl)carbonyl]amino]acetyl]-o-phenylene]dioxy]diacetate trifluoroacetate]",930 nM
9,"O=C(O)COc1ccc(C(=O)CNC(=O)CCCC2CCNCC2)cc1OCC(=O)O [Example 36, [[4-[[N-[4-(piperidin-4-yl)butyryl]amino]acetyl]-o-phenylene]dioxy]diaceticacid trifluoroacetate]",9000 nM
10,"CN(CC(=O)c1ccc(OCC(=O)O)c(OCC(=O)O)c1)C(=O)CC1CCNCC1 [Example 37, [[4-[[N-[2-(piperidin-4-yl)acetyl]-N-methylamino]acetyl]-o-phenylene]dioxy]diacetic acid trifluoroacetate]",4900 nM
11,"O=C(O)CCc1ccc(C(=O)CNC(=O)CCC2CCNCC2)cc1 [Example 38, 3-[4-[N-[3-(piperidin-4-yl)propionyl]amino]acetyl]phenylpropionic acid trifluoroacetate]",8000 nM
12,"O=C(O)COc1ccc(CCNC(=O)c2cc3c(s2)CCNC3)cc1 [Example 39, 4-[2-[[(4,5,6,7-tetrahydrothieno[3,2-c]pyridin-2-yl)carbonyl]amino]ethyl]phenoxyacetic acid trifluoroacetate]",260 nM
13,"O=C(O)COc1ccc(CCNCc2cc3c(s2)CCNC3)cc1OCC(=O)O [Example 40, [[4-[2-[N-[(4,5,6,7-tetrahydrothieno[3,2-c]pyridin-2-yl)methyl]amino]ethyl]-o-phenylene]dioxy]diacetic acid trifluoroacetate]",4000 nM
14,"CC(=O)N(CCc1ccc(OCC(=O)O)c(OCC(=O)O)c1)Cc1cc2c(s1)CCNC2 [Example 41, [[4-[2-[N-[(4,5,6,7-tetrahydrothieno[3,2-c]pyridin-2-yl)methyl]-N-acetylamino]ethyl]-o-phenylene]dioxy]diacetic acid trifluoroacetate]",3300 nM
15,"Cc1oc(=O)oc1COC(=O)COc1ccc(C(=O)CNC(=O)c2cc3c(s2)CCNC3)cc1OCC(=O)OCc1oc(=O)oc1C [Example 42, Di-(5-methyl-2-oxodioxol-4-yl)methyl [[4-[[(4,5,6,7-tetrahydrothieno[3,2-c]pyridin-2-yl)-carbonyl]amino]acetyl]-o-phenylene]dioxy]diacetic acid trifluoroacetate]",340 nM
16,"O=C(O)COc1ccc(-c2cnc(CCC3CCNCC3)o2)cc1OCC(=O)O [Example 43, [[4-[2-[2-(piperidin-4-yl)ethyl]oxazol-5-yl]-o-phenylene]dioxy]diacetic acid 1/2 sulfate]",2800 nM
17,"O=C(O)COc1ccc(C(=O)CNC(=O)c2cc3c(s2)CCNC3)nc1 [Example 44, 2-[[4,5,6,7-tetrahydrothieno[3,2-c]pyridin-2-yl)carbonylamino]acetyl]pyridin-5-yloxyacetic acid trifluoroacetate]",720 nM
18,"O=C(O)COc1ccc(C(O)CNC(=O)c2cc3c(s2)CCNC3)cc1OCC(=O)O (centres unmarked) [Example 45, [[4-[[2-[(4,5,6,7-tetrahydrothieno[3,2-c]pyridin-2-yl)carbonyl]amino]-1-hydroxyethyl]-o-phenylene]dioxy]diacetic acid trifluoroacetate]",460 nM
19,"O=C(O)COc1ccc(-c2nc(C(=O)c3cc4c(s3)CCNC4)cs2)cc1 [Example 47, 4-[[4-(4,5,6,7-tetrahydrothieno[3,2-c]pyridin-2-yl)carbonyl]thiazol-2-yl]phenoxyacetic acid trifluoroacetate]",6400 nM
20,"CCCCOC(=O)COc1ccc(C(=O)CNC(=O)c2cc3c(s2)CCNC3)cc1OCC(=O)OCCCC [Example 56, Di-n-butyl [[4-[[[(4,5,6,7-tetrahydrothieno [3,2-c]pyridin-2-yl)carbonyl]amino]acetyl]-o-phenylene]dioxy]diacetate trifluoroacetate]",1100 nM
21,"O=C(COc1ccc(C(=O)CNC(=O)c2cc3c(s2)CCNC3)cc1OCC(=O)OC1CCCCC1)OC1CCCCC1 [Example 57, Dicyclohexyl [[4-[[[(4,5,6,7-tetrahydrothieno[3,2-c]pyridin-2-yl)carbonyl]amino]acetyl]-o-phenylene]dioxy]diacetate]",3200 nM
22,"CN(CC(=O)c1ccc(OCC(=O)O)c(OCC(=O)O)c1)C(=O)[C@H]1CC[C@H](C(=N)N)CC1 [Example 58, [[4-[[[trans-4-amidinocyclohexyl]carbonyl-N-methylamino]acetyl]-o-phenylene]dioxy]diacetic acid trifluoroacetate]",140 nM

# Same assay, conditions: Platelet, inhibition rate at 10^-6 M, ADP 5 μM inducer
row,Structure (SMILES),inhibition at 1 µM
1,"NC[C@H]1CC[C@H](C(=O)NCC(=O)c2ccc(OCC(=O)O)c(OCC(=O)O)c2)CC1 [Example 1, [[4-[[[trans-4-(aminomethyl)cyclohexyl]carbonylamino]acetyl]-o-phenylene]dioxy]diacetic acid trifluoroacetate]",68%

# Same assay, conditions: platelet aggregation, ADP 5 μM inducer
row,Structure (SMILES),IC50
1,"O=C(O)COc1ccc(C(=O)CNC(=O)c2cc3c(s2)CCNC3)cc1OCC(=O)O [Example 29, [[4-[[[(4,5,6,7-tetrahydrothieno[3.2-c]pyridin-2-yl)carbonyl]amino]acetyl]-o-phenylene]dioxy]diacetic acid trifluoroacetate]",230 nM
